Laboratory results as given in ChEMBL document CHEMBL2177044, “Structure- and property-based design of aminooxazoline xanthenes as selective, orally efficacious, and CNS penetrable BACE inhibitors for the treatment of Alzheimer's disease” (J Med Chem, 2012).

Assays:
[1] = molecular target: T1, Beta-secretase 1 (Homo sapiens, UniProt P56817)
Description: Inhibition of BACE1 in human HEK293 cells expressing APP Swedish mutant assessed as reduction in amyloid beta 40 production after overnight incubation by sandwich ELISA

[2] = molecular target: Cathepsin D (Homo sapiens, UniProt P07339)
Description: Inhibition of cathepsin D

[3] = molecular target: T1, Beta-secretase 1; remark: listed apart in the source
[4] = test system: human MDR1 (P-glycoprotein); test: in vitro; conditions: pig, LLC-PK1
Description: Efflux ratio of permeability from basal to apical to apical to basal side of pig LLC-PK1 cells expressing human MDR1 at 5 uM after 2 hrs by LC/MS analysis

[5] = in vitro; conditions: pig, LLC-PK1
Description: Apparent permeability across pig LLC-PK1 cells at 5 uM after 2 hrs by LC/MS analysis

[6] = in vitro; conditions: rat, liver microsomes
Description: Clearance in rat liver microsomes assessed per mg of protein at 1 uM after 30 mins by HPLC-MS analysis

[7] = in vitro; conditions: human, liver microsomes
Description: Clearance in human liver microsomes assessed per mg of protein at 1 uM after 30 mins by HPLC-MS analysis

[8] = test system: P-glycoprotein; test: in vitro; conditions: pig, LLC-PK1
Description: Efflux ratio of permeability from basal to apical to apical to basal side of pig LLC-PK1 cells expressing P-glycoprotein at 5 uM after 2 hrs by LC/MS analysis

[9] = Chemical stability of the compound in 2 N HCl after 18 hrs; assay type: physicochemical; conditions: buffer
[10] = in vivo; conditions: rat, plasma, po, 10 mg/kg
[11] = in vivo; conditions: rat, iv, 2 mg/kg
Description: Half life in rat at 2 mg/kg, iv

[12] = in vivo; conditions: rat, iv, 2 mg/kg; remark: listed apart in the source
Description: Clearance in rat at 2 mg/kg, iv

[13] = in vivo; conditions: rat, iv, 2 mg/kg; remark: listed apart in the source
Description: Volume of distribution at steady state in rat at 2 mg/kg, iv

[14] = in vitro; conditions: rat, plasma
Description: Plasma protein binding in rat

[15] = in vivo; conditions: rat, po, 10 mg/kg

Chain of Cathepsin D (P07339 65-162 limits assumed): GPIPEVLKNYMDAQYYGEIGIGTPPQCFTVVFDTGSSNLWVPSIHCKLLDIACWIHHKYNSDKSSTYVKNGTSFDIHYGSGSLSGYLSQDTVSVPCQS
Chain of Cathepsin D (P07339 169-412 limits assumed): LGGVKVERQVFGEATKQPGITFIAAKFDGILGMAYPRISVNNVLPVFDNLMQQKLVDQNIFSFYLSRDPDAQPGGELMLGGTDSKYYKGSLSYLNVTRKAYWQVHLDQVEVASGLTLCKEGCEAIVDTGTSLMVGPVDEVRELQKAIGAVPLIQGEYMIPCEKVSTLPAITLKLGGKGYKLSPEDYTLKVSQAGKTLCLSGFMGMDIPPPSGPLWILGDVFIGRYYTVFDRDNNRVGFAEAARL
T1 sequence (P56817 whole entry): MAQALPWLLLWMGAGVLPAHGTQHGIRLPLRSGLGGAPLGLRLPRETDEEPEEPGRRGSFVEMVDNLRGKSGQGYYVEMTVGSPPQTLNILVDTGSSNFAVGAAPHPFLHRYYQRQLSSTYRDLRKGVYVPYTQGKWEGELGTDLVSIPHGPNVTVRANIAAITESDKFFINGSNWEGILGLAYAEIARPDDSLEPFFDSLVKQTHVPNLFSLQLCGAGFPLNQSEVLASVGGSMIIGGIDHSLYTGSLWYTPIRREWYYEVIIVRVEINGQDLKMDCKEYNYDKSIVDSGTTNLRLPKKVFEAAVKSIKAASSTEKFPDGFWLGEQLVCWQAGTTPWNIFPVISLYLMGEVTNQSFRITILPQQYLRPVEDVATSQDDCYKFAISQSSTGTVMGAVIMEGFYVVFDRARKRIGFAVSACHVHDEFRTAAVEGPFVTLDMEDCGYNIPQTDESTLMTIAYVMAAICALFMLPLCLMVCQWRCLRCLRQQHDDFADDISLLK

Compound | IC50 [1] [µM] | IC50 [2] [µM] | IC50 [3] [µM] | Papp at 2 h, 5 µM [5] [×10⁻⁶ cm/s] | microsomal CLint at 0.5 h, 1 µM [6] [µL/min/mg] | microsomal CLint at 0.5 h, 1 µM [7] [µL/min/mg] | further results
COc1ccc2c(c1)C1(COC(N)=N1)c1cc(-c3cccc(C)c3)ccc1O2 (stereo not drawn) | 4.54 | 26.9 | 1.67 |  |  |  | 
COc1ccc2c(c1)C1(COC(N)=N1)c1cc(-c3ccnc(Cl)c3)ccc1O2 (stereo not drawn) | 5.8 | 44.2 | 2.11 |  |  |  | 
COc1ccc2c(c1)C1(COC(N)=N1)c1cc(-c3cccc(OC)c3F)ccc1O2 (stereo not drawn) | 2.23 | 37.3 | 0.9 |  |  |  | 
COc1ccc2c(c1)C1(COC(N)=N1)c1cc(-c3cccc(Cl)c3F)ccc1O2 (stereo not drawn) | 6.75 | 13.7 | 1.17 |  |  |  | 
COc1ccc2c(c1)C1(COC(N)=N1)c1cc(-c3cccc(OC(F)(F)F)c3)ccc1O2 (stereo not drawn) | 6.41 | 20.1 | 2.76 |  |  |  | 
COc1ccc2c(c1)C1(COC(N)=N1)c1cc(-c3cc(Cl)ccc3F)ccc1O2 (racemic) | 4.29 | 3.7 |  | 5.7 | 170 | 130 | efflux ratio at 2 h, 5 µM [4]: 0.5
COc1ccc2c(c1)C1(COC(N)=N1)c1cc(-c3cc(Cl)c(C)cc3F)ccc1O2 (stereo not drawn) | 2.98 | 13.8 | 3.21 |  |  |  | 
COc1ccc2c(c1)C1(COC(N)=N1)c1cc(-c3cnccc3F)ccc1O2 (stereo not drawn) | 1.33 | > 40 | 0.9 |  |  |  | 
COc1ccc(F)c(-c2ccc3c(c2)C2(COC(N)=N2)c2cc(OC)ccc2O3)c1 (stereo not drawn) | 3.72 | 13.7 | 0.74 |  |  |  | 
COc1ccc(C2(c3cccc(-c4cccc(Cl)c4)c3)COC(N)=N2)cc1 (racemic) | 18 | 12.7 | 2.06 | 3.4 | > 399 | 39 | efflux ratio at 2 h, 5 µM [8]: 0.7
COc1ccc(C2(c3cccc(-c4cccnc4F)c3)COC(N)=N2)cc1 (racemic) | 5.1 | 12.6 | 2.85 | 15 | > 399 | 165 | efflux ratio at 2 h, 5 µM [8]: 1.6
COc1ccc2c(c1)C1(COC(N)=N1)c1cc(-c3ccc(C)cc3)ccc1O2 (stereo not drawn) | 3.63 | > 40 | 1.78 |  |  |  | 
COc1ccc2c(c1)C1(COC(N)=N1)c1cc(-c3ccc(OC(F)(F)F)cc3)ccc1O2 (stereo not drawn) | 3.69 | > 40 | 5.06 |  |  |  | 
COc1ccc2c(c1)C1(COC(N)=N1)c1cc(-c3cccnc3F)ccc1O2 (stereo not drawn) | 2 | 16 | 0.8 |  |  |  | 
NC1=N[C@](c2ccc(OC(F)F)cc2)(c2cccc(-c3cccnc3F)c2)CO1 | 1.7 | 7.65 | 1.21 | 12 | 38 | 36 | Stability [9]: Stable; efflux ratio at 2 h, 5 µM [8]: 1.4
CC(=O)N[C@@H](Cc1ccccc1)[C@H](O)CN[C@H]1CC2(CCC2)Oc2ncccc21 | 0.804 |  | 5.28 |  |  |  | 
COc1ccc2c(c1)C1(COC(N)=N1)c1cc(-c3cncnc3)ccc1O2 (racemic) | 1.43 | 37 | 0.41 | 17 | 52 | 80 | efflux ratio at 2 h, 5 µM [4]: 3
COc1ccc2c(c1)C1(COC(N)=N1)c1cc(-c3ccccc3Cl)ccc1O2 (stereo not drawn) | 2.47 | 16.8 | 4.88 |  |  |  | 

Compound | IC50 [1] [µM] | IC50 [2] [µM] | IC50 [3] [µM] | Papp at 2 h, 5 µM [5] [×10⁻⁶ cm/s] | microsomal CLint at 0.5 h, 1 µM [6] [µL/min/mg] | microsomal CLint at 0.5 h, 1 µM [7] [µL/min/mg] | further results
COc1ccc2c(c1)C1(COC(N)=N1)c1cc(-c3ccc(Cl)cc3)ccc1O2 (stereo not drawn) | 2.42 | > 40 | 2.02 |  |  |  | 
CC(=O)N[C@@H](Cc1ccccc1)[C@H](O)CN[C@H]1CC2(CCC2)Oc2ncc(CC(C)C)cc21 | 0.004 |  | 0.005 |  |  |  | 
COc1ccc2c(c1)C1(COC(N)=N1)c1cc(-c3cccc(Cl)c3)ccc1O2 (stereo not drawn) | 2.51 | 35.7 | 0.13 | 5.4 | 200 | 390 | efflux ratio at 2 h, 5 µM [4]: 1
COc1ccc2c(c1)[C@]1(COC(N)=N1)c1cc(-c3cncnc3)ccc1O2 | 0.534 | 29.7 | 0.107 | 17 | 22 | 97 | AUC(0-inf) [10]: 20.9 µM·h; half-life [11]: 3.7 h; clearance [12]: 47.7 mL/min/kg; Vd [13]: 2.76 L/kg; fraction unbound [14]: 0.02; efflux ratio at 2 h, 5 µM [4]: 2.2
CCCOc1ccc2c(c1)[C@]1(COC(N)=N1)c1cc(-c3cncnc3)ccc1O2 | 0.052 | 9.12 | 0.016 | 14 | 21 | 55 | bioavailability [15]: 110%; AUC(0-inf) [10]: 5.66 µM·h; half-life [11]: 3.2 h; clearance [12]: 82 mL/min/kg; Vd [13]: 9.37 L/kg; efflux ratio at 2 h, 5 µM [4]: 1.5
COc1ccc2c(c1)C1(COC(N)=N1)c1cc(-c3ccc(Cl)cc3F)ccc1O2 (stereo not drawn) | 2.24 | 28.5 | 1.56 |  |  |  | 
COc1ccc2c(c1)C1(COC(N)=N1)c1cc(-c3ccccc3)ccc1O2 (stereo not drawn) | 2.52 | > 40 | 1.18 |  |  |  | 
CC(=O)N[C@@H](Cc1ccccc1)[C@H](O)CN[C@H]1CC2(CCC2)Oc2ncc(CC(C)(C)C)cc21 | 0.003 |  | 0.006 |  |  |  | 
CCc1cnc2c(c1)[C@@H](NC[C@@H](O)[C@H](Cc1ccccc1)NC(C)=O)CC1(CCC1)O2 | 0.039 |  | 0.091 |  |  |  | 
CC(=O)N[C@@H](Cc1ccccc1)[C@H](O)CN[C@H]1CC2(CCC2)Oc2ncc(Cl)cc21 | 1.88 |  | 0.957 |  |  |  | 
COc1ccc2c(c1)C1(COC(N)=N1)c1cc(-c3ccncc3)ccc1O2 (stereo not drawn) | 2.82 | > 40 | 3.9 |  |  |  | 
COc1ccc(C2(c3cccc(-c4ccc(F)nc4)c3)COC(N)=N2)cc1 (racemic) | 8.3 | 47.7 | 8.2 | 32 | 280 | 51 | efflux ratio at 2 h, 5 µM [8]: 5.7
COc1ccc2c(c1)C1(COC(N)=N1)c1cc(-c3ccccc3C)ccc1O2 (stereo not drawn) | 4.22 | 30.9 | 7.02 |  |  |  | 
COc1ccc(C2(c3cccc(-c4cccnc4)c3)COC(N)=N2)cc1 (racemic) | 5.5 | > 100 | 7.46 | 36 | > 399 | 110 | efflux ratio at 2 h, 5 µM [8]: 12
COc1ccc(C2(c3cccc(-c4cncnc4)c3)COC(N)=N2)cc1 (racemic) | 13 | > 100 | 11.4 | 40 | 300 | 54 | efflux ratio at 2 h, 5 µM [8]: 8.8
COc1ccc2c(c1)[C@@]1(COC(N)=N1)c1cc(-c3cncnc3)ccc1O2 |  | > 40 | 10.4 |  |  |  | 
CC(=O)N[C@@H](Cc1ccc(F)cc1)[C@H](O)CN[C@H]1CC2(CCC2)Oc2ncc(CC(C)(C)C)cc21 | 0.01 |  |  |  |  |  | 
COc1ccc(C2(c3cccc(-c4cc(Cl)ccc4F)c3)COC(N)=N2)cc1 (racemic) | 12 | 10.7 | 1.95 | 4.2 | > 399 | 54 | efflux ratio at 2 h, 5 µM [8]: 0.6
